Measurements reported in ChEMBL document CHEMBL3124782, “MHY884, a newly synthesized tyrosinase inhibitor, suppresses UVB-induced activation of NF-κB signaling pathway through the downregulation of oxidative stress” (Bioorg Med Chem Lett, 2014).
Calls of active or inactive are those of the source. The calls are words filed in the database; no cut-off is given here.

Columns and labels:
[1] = Antioxidant activity assessed as peroxynitrite scavenging activity at 1 to 10 uM by DHR 123 assay; type: functional
[2] = Antioxidant activity assessed as ROS scavenging activity at 1 to 10 uM by DCFDA assay; type: functional
Mus musculus [3] = assay: (§1) Antioxidant activity in UVB-irradiated melanin-possessing hairless mouse assessed as inhibition of AKT phosphorylation at Thr 308 and Ser473 residues in skin homogenate at 2 to 10 uM treated topically to dorsal skin once a day for 21 days concomitantly irradiated with UV-B on alternate days from day 2 post-treatment by Western blot method; type: functional, organism-based
Mus musculus [4] = assay: Antioxidant activity in melanin-possessing hairless mouse assessed as inhibition of UVB-induced peroxynitrite generation in skin homogenate compound treated topically to dorsal skin once a day for 21 days concomitantly irradiated with UV-B on alternate days from day 2 post-treatment by DHR 123 assay; type: functional, organism-based
B16-F10 [5] = assay: Inhibition of oxidative stress in mouse B16F10 cells assessed as SIN-1-induced ROS generation pretreated for 2 hrs followed by washout before SIN-1 challenge; type: functional, cell-based
Mus musculus [6] = assay: as §1, with “AKT-mediated IKKalphabeta” for “AKT”, “Ser176/180” for “Thr 308 and Ser473”; type: functional, organism-based
Mus musculus [7] = assay: Antioxidant activity in melanin-possessing hairless mouse assessed as inhibition of UVB-induced ROS generation in skin homogenate compound treated topically to dorsal skin once a day for 21 days concomitantly irradiated with UV-B on alternate days from day 2 post-treatment by DCFDA assay; type: functional, organism-based
Mus musculus [8] = assay: as §1, with “NF-kappaB-mediated iNOS expression” for “AKT phosphorylation at Thr 308 and Ser473 residues”; type: functional, organism-based
Mus musculus [9] = assay: as §1, with “p65 NF-kappaB” for “AKT”, “Ser536 residue” for “Thr 308 and Ser473 residues”; type: functional, organism-based
Mus musculus [10] = assay: as §1, with “nuclear translocation of p-p65 NF-kappaB Ser 536” for “AKT phosphorylation at Thr 308 and Ser473 residues”; type: functional, organism-based
Mus musculus [11] = assay: Antioxidant activity in UVB-irradiated melanin-possessing hairless mouse assessed as effect on GSH/GSSG ratio in skin homogenate at 2 to 10 uM treated topically to dorsal skin once a day for 21 days concomitantly irradiated with UV-B on alternate days from day 2 post-treatment by o-phthalaldehyde assay; type: functional, organism-based
B16-F10 [12] = assay: Inhibition of oxidative stress in mouse B16F10 cells assessed as SIN-1-induced peroxynitrite generation pretreated for 2 hrs followed by washout before SIN-1 challenge; type: functional, cell-based
Mus musculus [13] = assay: as §1, with “NF-kappaB-mediated COX-2 expression” for “AKT phosphorylation at Thr 308 and Ser473 residues”; type: functional, organism-based

Compound | Activity [1] | Activity [2] | inhibition (Mus musculus [3]) | inhibition (Mus musculus [4]) | inhibition (B16-F10 [5]) | inhibition (Mus musculus [6]) | inhibition (Mus musculus [7]) | inhibition (Mus musculus [8]) | inhibition (Mus musculus [9]) | inhibition (Mus musculus [10]) | Activity (Mus musculus [11]) | inhibition (B16-F10 [12]) | inhibition (Mus musculus [13])
CC(C)(S)[C@@H](N)C(=O)O | Active |  |  |  |  |  |  |  |  |  |  |  | 
Cc1c(C)c2c(c(C)c1O)CCC(C)(C(=O)O)O2 (stereo not given) |  | Active |  |  |  |  |  |  |  |  |  |  | 
COc1cc(C2Nc3cc(Cl)ccc3S2)cc(OC)c1O (stereo not given) | Active | Active | Active | Dose-dependent effect | Dose-dependent effect | Active | Dose-dependent effect | Active | Active | Active | inactive | Dose-dependent effect | Active
